Target: T1, 5-Lipoxygenase (Homo sapiens, UniProt P09917)
T1 construct: endogenous in cells; host or cells: human heparinized whole blood (its leukocytes)
T1 sequence (P09917 1-674): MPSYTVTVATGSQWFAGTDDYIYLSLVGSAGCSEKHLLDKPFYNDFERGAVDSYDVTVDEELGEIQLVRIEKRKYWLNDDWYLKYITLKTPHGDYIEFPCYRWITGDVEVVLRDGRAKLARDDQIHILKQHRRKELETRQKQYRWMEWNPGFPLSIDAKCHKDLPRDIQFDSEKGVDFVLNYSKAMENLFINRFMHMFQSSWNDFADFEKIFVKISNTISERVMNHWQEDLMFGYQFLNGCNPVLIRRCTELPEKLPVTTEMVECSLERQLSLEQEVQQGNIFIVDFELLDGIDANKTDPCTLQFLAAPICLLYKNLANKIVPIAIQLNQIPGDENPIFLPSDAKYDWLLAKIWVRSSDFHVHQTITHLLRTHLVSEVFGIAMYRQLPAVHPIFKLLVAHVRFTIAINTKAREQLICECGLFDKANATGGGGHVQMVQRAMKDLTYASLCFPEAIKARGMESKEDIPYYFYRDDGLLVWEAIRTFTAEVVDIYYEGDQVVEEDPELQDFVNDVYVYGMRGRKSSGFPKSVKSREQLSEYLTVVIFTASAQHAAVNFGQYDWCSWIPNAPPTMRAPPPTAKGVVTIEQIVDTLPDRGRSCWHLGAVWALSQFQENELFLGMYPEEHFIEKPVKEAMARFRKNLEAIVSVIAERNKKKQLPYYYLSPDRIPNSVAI
Test: Inhibition of calcium ionophore A23187-induced LTB4 biosynthesis in human whole blood (radioimmunoassay)
Format: cell-based
Settings: human heparinized whole blood, 15 min preincubation, A23187 8.3 μM, 30 min, read-out: Inhibition of stimulated LTB4 formation in human whole blood (IC50 (10^-6 M)); for inhibition at 0.2 µM: @ 0.20 μM
Protocol: Inhibition of leukotriene biosynthesis was evaluated in an assay, involving calcium ionophore-induced LTB4 biosynthesis expressed human whole blood. Human heparinized whole blood was preincubated with test compounds or vehicle for 15 min at 37° C. followed by calcium ionophore A23187 challenge (final concentration of 8.3 μM) and the reaction terminated after 30 min by adding two volumes of methanol containing prostaglandin B2 as an internal recovery standard. The methanol extract was analyzed for LTB4 using a commercially available radioimmunoassay.
In Vitro Inhibitory Potencies of Compounds of this Invention
Against 5-Lipoxygenase from Stimulated LTB4
Formation in Human Whole Blood

Compound | inhibition at 0.2 µM [%] | inhibition at 0.78 µM [%] | further results
CO/N=C(\c1cc(F)cc(OCc2ccc3c(ccc(=O)n3C)c2)c1)[C@H]1COC(C)(C)O1 [Example 5, E-(4S)-O-methyl-2,2-dimethyl-4-[(5-fluoro-3-(1,2-dihydro-1-methyl-2-oxoquinoline-6-ylmethyloxy)phenyl)oximinomethyl]-1,3-dioxolane] |  |  | inhibition at 0.1 µM (@ 0.10 μM): 95%
CO/N=C(/c1cc(F)cc(OCc2ccc3c(ccc(=O)n3C)c2)c1)[C@H]1COC(C)(C)O1 [Example 6, Z-(4S)-O-methyl-2,2-dimethyl-4-[(5-fluoro-3-(1,2-dihydro-1-methyl-2-oxoquinoline-6-ylmethyloxy)phenyl)oximinomethyl]-1,3-dioxolane] | 83 |  | 
CO/N=C(\c1cc(F)cc(OCc2ccc3ccccc3c2)c1)[C@H]1COC(C)(C)O1 [4(E oxime), E-(4S)-O-methyl-2,2-dimethyl-4-[(5-fluoro-3-(napth-2-ylmethyloxy)phenyl)oximinomethyl]-1,3-dioxolane] | 100 |  | 
COC[C@@H](OC)[C@H](OC)c1cc(F)cc(OCc2ccc3ccccc3c2)c1 [Example 8, syn-(1R, 2R)-1-[(5-fluoro-3-(napth-2-ylmethyloxy)phenyl)]-1,2,3-trimethoxypropane] |  | 92 | 
CO/N=C(/c1cc(F)cc(OCc2ccc3ccccc3c2)c1)[C@H]1COC(C)(C)O1 [4(Z oxime), Z-(4S)-O-methyl-2,2-dimethyl-4-[(5-fluoro-3-(napth-2-ylmethyloxy)phenyl)oximinomethyl]-1,3-dioxolane] |  | 78 | 
COC[C@@H](OC)[C@@H](OC)c1cc(F)cc(OCc2ccc3ccccc3c2)c1 [Example 7, anti-(1S, 2R)-1-[(5-fluoro-3-(napth-2-ylmethyloxy)phenyl)]-1,2,3-trimethoxypropane] | 95 |  | 

Reference: patent publication US5475009A, “1, 2-dialkoxyethanes as 5-lipoxygenase inhibitors” (Abbott Laboratories, priority 1994, dated 1995)
